Source: the supplement of paper PMC13380429

How the values were obtained:
Details in all cases: 72 h
Caco-2 [1] = experiment: cell viability relative to DMSO; higher = less toxic
Calu-3 [2] = experiment: as above
Vero E6 [3] = experiment: as above
Caco-2 [4] = experiment: relative viability EC50 (midpoint between 100% and the lowest measured viability); higher = less toxic
Calu-3 [5] = experiment: as above
Vero E6 [6] = experiment: as above
Caco-2 [7] = experiment: drug sensitivity score (DSS) for viability; higher = more toxic; extreme values may be limits of the assay
Calu-3 [8] = experiment: as above
Vero E6 [9] = experiment: as above
HepG2 [10] = experiment: cell viability relative to DMSO; higher = less toxic
U2OS [11] = experiment: as above
U2OS [12] = experiment: relative viability EC50 (midpoint between 100% and the lowest measured viability); higher = less toxic
HepG2 [13] = experiment: drug sensitivity score (DSS) for viability; higher = more toxic; extreme values may be limits of the assay
U2OS [14] = experiment: as above

CC(=O)SC[C@@H](C)C(=O)N1CCC[C@H]1C(=O)N[C@@H](Cc1ccccc1)C(=O)O [alacepril]
cell viability (Caco-2 [1]; 1 nM): 102%
cell viability (Caco-2 [1]; 10 nM): 101%
cell viability (Caco-2 [1]; 100 nM): 94.7%
cell viability (Caco-2 [1]; 1000 nM): 108%
cell viability (Caco-2 [1]; 10000 nM): 104%
cell viability (Calu-3 [2]; 1 nM): 106%
cell viability (Calu-3 [2]; 10 nM): 108%
cell viability (Calu-3 [2]; 100 nM): 96.9%
cell viability (Calu-3 [2]; 1000 nM): 103%
cell viability (Calu-3 [2]; 10000 nM): 99.4%
cell viability (Vero E6 [3]; 1 nM): 98.3%
cell viability (Vero E6 [3]; 10 nM): 101%
cell viability (Vero E6 [3]; 100 nM): 93%
cell viability (Vero E6 [3]; 1000 nM): 98.8%
cell viability (Vero E6 [3]; 10000 nM): 99.4%
relative viability EC50 (Caco-2 [4]): > 10 µM
relative viability EC50 (Calu-3 [5]): > 10 µM
relative viability EC50 (Vero E6 [6]): > 10 µM
drug sensitivity score (Caco-2 [7]): 0
drug sensitivity score (Calu-3 [8]): 0
drug sensitivity score (Vero E6 [9]): 0

CCC1(c2ccc(N)cc2)CCC(=O)NC1=O (stereo unspecified) [aminoglutethimide]
cell viability (Caco-2 [1]; 1 nM): 109%
cell viability (Caco-2 [1]; 10 nM): 97.2%
cell viability (Caco-2 [1]; 100 nM): 105%
cell viability (Caco-2 [1]; 1000 nM): 112%
cell viability (Caco-2 [1]; 10000 nM): 111%
cell viability (Calu-3 [2]; 1 nM): 112%
cell viability (Calu-3 [2]; 10 nM): 95.6%
cell viability (Calu-3 [2]; 100 nM): 103%
cell viability (Calu-3 [2]; 1000 nM): 93.2%
cell viability (Calu-3 [2]; 10000 nM): 102%
cell viability (HepG2 [10]; 1 nM): 90.7%
cell viability (HepG2 [10]; 10 nM): 96%
cell viability (HepG2 [10]; 100 nM): 85.3%
cell viability (HepG2 [10]; 1000 nM): 77.2%
cell viability (HepG2 [10]; 10000 nM): 71.8%
cell viability (U2OS [11]; 1 nM): 102%
cell viability (U2OS [11]; 10 nM): 105%
cell viability (U2OS [11]; 100 nM): 105%
cell viability (U2OS [11]; 1000 nM): 101%
cell viability (U2OS [11]; 10000 nM): 98.6%
cell viability (Vero E6 [3]; 1 nM): 97.6%
cell viability (Vero E6 [3]; 10 nM): 101%
cell viability (Vero E6 [3]; 100 nM): 91.3%
cell viability (Vero E6 [3]; 1000 nM): 86.9%
cell viability (Vero E6 [3]; 10000 nM): 100%
relative viability EC50 (Caco-2 [4]): > 10 µM
relative viability EC50 (Calu-3 [5]): > 10 µM
relative viability EC50 (U2OS [12]): > 10 µM
relative viability EC50 (Vero E6 [6]): > 10 µM
drug sensitivity score (Caco-2 [7]): 0
drug sensitivity score (Calu-3 [8]): 0
drug sensitivity score (HepG2 [13]): 4.8
drug sensitivity score (U2OS [14]): 0
drug sensitivity score (Vero E6 [9]): 0

COc1ccc(-c2cc(=S)ss2)cc1 [anethole-trithione]
cell viability (Caco-2 [1]; 1 nM): 99.3%
cell viability (Caco-2 [1]; 10 nM): 96.5%
cell viability (Caco-2 [1]; 100 nM): 100%
cell viability (Caco-2 [1]; 1000 nM): 91.9%
cell viability (Caco-2 [1]; 10000 nM): 92.2%
cell viability (Calu-3 [2]; 1 nM): 97.1%
cell viability (Calu-3 [2]; 10 nM): 95.9%
cell viability (Calu-3 [2]; 100 nM): 111%
cell viability (Calu-3 [2]; 1000 nM): 108%
cell viability (Calu-3 [2]; 10000 nM): 97.3%
cell viability (U2OS [11]; 1 nM): 100%
cell viability (U2OS [11]; 10 nM): 98.9%
cell viability (U2OS [11]; 100 nM): 99.8%
cell viability (U2OS [11]; 1000 nM): 97.6%
cell viability (U2OS [11]; 10000 nM): 103%
cell viability (Vero E6 [3]; 1 nM): 107%
cell viability (Vero E6 [3]; 10 nM): 105%
cell viability (Vero E6 [3]; 100 nM): 95.9%
cell viability (Vero E6 [3]; 1000 nM): 102%
cell viability (Vero E6 [3]; 10000 nM): 106%
relative viability EC50 (Caco-2 [4]): > 10 µM
relative viability EC50 (Calu-3 [5]): > 10 µM
relative viability EC50 (U2OS [12]): > 10 µM
relative viability EC50 (Vero E6 [6]): > 10 µM
drug sensitivity score (Caco-2 [7]): 0
drug sensitivity score (Calu-3 [8]): 0
drug sensitivity score (U2OS [14]): 0
drug sensitivity score (Vero E6 [9]): 0

CN/C(=N\CCSCc1nc[nH]c1C)NC#N [cimetidine]
cell viability (Caco-2 [1]; 1 nM): 99.8%
cell viability (Caco-2 [1]; 10 nM): 98.7%
cell viability (Caco-2 [1]; 100 nM): 98.7%
cell viability (Caco-2 [1]; 1000 nM): 106%
cell viability (Caco-2 [1]; 10000 nM): 88.1%
cell viability (Calu-3 [2]; 1 nM): 104%
cell viability (Calu-3 [2]; 10 nM): 106%
cell viability (Calu-3 [2]; 100 nM): 102%
cell viability (Calu-3 [2]; 1000 nM): 101%
cell viability (Calu-3 [2]; 10000 nM): 88.6%
cell viability (U2OS [11]; 1 nM): 101%
cell viability (U2OS [11]; 10 nM): 106%
cell viability (U2OS [11]; 100 nM): 100%
cell viability (U2OS [11]; 1000 nM): 104%
cell viability (U2OS [11]; 10000 nM): 96.4%
cell viability (Vero E6 [3]; 1 nM): 94.5%
cell viability (Vero E6 [3]; 10 nM): 91.7%
cell viability (Vero E6 [3]; 100 nM): 96.9%
cell viability (Vero E6 [3]; 1000 nM): 91.3%
cell viability (Vero E6 [3]; 10000 nM): 90%
relative viability EC50 (Caco-2 [4]): > 10 µM
relative viability EC50 (Calu-3 [5]): > 10 µM
relative viability EC50 (U2OS [12]): > 10 µM
relative viability EC50 (Vero E6 [6]): > 10 µM
drug sensitivity score (Caco-2 [7]): 0
drug sensitivity score (Calu-3 [8]): 0
drug sensitivity score (U2OS [14]): 0
drug sensitivity score (Vero E6 [9]): 0
